The structures appear in SMILES notation.

The subject of one test is B7-H3. In words: B7-H3 expression (qRT-PCR, flow cytometry, western blot) in MM cells (Example 12). Type of test: cell-based, human. The procedure:
(§1) Bone marrow mononuclear cells (BMMCs) were collected from MM patients after obtaining IRB approval. Single-cell suspensions were prepared from human MM LAGλ-1A xenografts which had been grown in severe combined immunodeficient mice. HS-5 stromal and SUP-T1 T cells were purchased from ATCC. The cells were cultured and treated with or without RUX and then subjected to qRT-PCR, flow cytometric analysis, and western blot analysis. For qRT-PCR, total RNA was extracted and applied to cDNA synthesis, followed by qPCR. Gene expression was analyzed in MM BMMCs alone or co-cultured with stromal cells or T cells with or without Rux treatment (1 μM) in vitro.

Test [1] relates to PD-L2 gene and protein expression. In words: PD-L2 gene and protein expression in MM tumor cells alone or co-cultured with stromal cells (Example 11). Type of test: cell-based, human. Conditions: concentration dependent pattern. The procedure:
BM mononuclear cells (MCs) and serum were collected from MM patients and healthy subjects after obtaining IRB approval. Single-cell suspensions were prepared from human MM LAGκ-1A xenografts which had been grown in the mice. The cells were cultured and treated with or without RUX and then were determined by qPCR, flow cytometric analysis, ELISA, and western blot.
We further investigated the effects of RUX on PD-L1 and PD-L2 expression in primary and stromal cells from MM patients' BM samples in vitro. […] We then determined whether RUX can augment the anti-MM effects of T-cells in vitro. […] To evaluate the efficacy of drugs in vivo, severe combined immune deficient mice implanted with the human MM xenograft LAGκ-2 were treated with RUX (30 mg/kg).

For a further test, the system named is IL-2 gene expression. In words: IL-2 gene expression in MMBM (Example 12). Type of test: cell-based, human. The method, then: as §1
(§2) Next, we tested whether B7-H3 blockade by Rux could potentially restore exhausted T cell activity against myeloma cells in MMBM.

Another test has as its system PD-L1 protein expression. In words: PD-L1 protein expression on MM cells by flow cytometry, BMMCs co-cultured with HS-5 stromal cells. Conditions: fresh MM BMMCs co-cultured with HS-5, 72 hours. Format: cell-based, human. The method, then: To investigate the effects of RUX on PD-L1 protein expression on myeloma cell membranes, fresh MM BMMCs were isolated from MM patients and co-cultured with stromal cells (HS-5, ATCC). After 72 hours, cells were fixed using 2% paraformaldehyde for 30 minutes on ice and washed with PBS twice. The cells were stained with anti-PD-L1 antibody conjugated with PE and anti-CD138 antibody conjugated with FITC antibody for 2 hrs and analyzed by flow cytometry using a Beckman Coulter FC500 cytometer with Cytomics CXP software (Beckman Coulter, Fullerton, Calif.).

The test system of test [2] is PD-L1 gene expression. In words: PD-L1 gene expression in BMMCs from MM patient #2188 co-cultured with HS-5 stromal cells or THP-1 monocytes. Conditions: RUX 1 μM, 48 hours. Format: cell-based, human. The method, then: We also examined the effects of RUX on PD-L1 gene expression in MM tumor cells co-cultured with stromal cells or monocytes in vitro. BMMCs from MM patient #2188 were co-cultured with stromal cells from the HS-5 cell line (ATCC, CRL-11882) with or without RUX (1 μM) treatment. After 48 hours of co-culture, PD-L1 gene expression was increased in both BMMCs (FIG. 5A) and stromal cells (FIG. 5B) from the co-culture of both cell types compared with its expression in those cell types cultured alone. The increased PD-L1 levels were reduced in the presence of RUX (1 μM) in both cell populations after 48 hours of culture. Similarly, PD-L1 gene expression was increased in both BMMCs and monocytes (THP-1 cells) after co-culture compared with cells cultured alone (FIG. 5C and FIG. 5D) and reduced following exposure to RUX (1 μM).
FIG. 5A depicts relative PD-L1 gene expression in BMMCs from patient #2188 cultured with stromal cells (ATCC, HS-5) with RUX (1 μM) or without for 48 hours. BM, bone marrow cells alone; BM+1 μM, BMMCs treated with 1 μM RUX; BM/BM+S−0 μM, BMMCs with stromal cells without RUX; BM/BM+S+1 μM, BMMCs with stromal cells and 1 μM RUX.
FIG. 5B depicts relative PD-L1 gene expression in stromal cells (ATCC, HS-5) co-cultured with BMMCs from patient #2188 on Transwell inserts with (1 μM) or without RUX for 48 hours. Stroma cells (S) alone; stromal cells+1 μM, stromal cells treated with RUX (1 μM); S/BM+S−0 μM, BMMCs with stromal cells without RUX; S/BM+S−1 μM, BMMCs with stromal cells with RUX at 1 μM.
FIG. 5C depicts relative PD-L1 gene expression in BMMCs from patient #2188 co-cultured with THP-1 monocytes treated with (1 μM) or without RUX for 48 hours. BM, BMMCs alone; BM+1 μM, BMMCs treated with 1 μM RUX; BM/BM+T−0 μM, BMMCs with THP-1 monocytes without RUX; BM/BM+T+1 μM, BMMCs with THP-1 monocytes treated with RUX 1 μM.
FIG. 5D depicts relative PD-L1 gene expression in THP-1 monocytes co-cultured with BMMCs from patient #2188 on Transwell inserts with (1 μM) or without RUX for 48 hours. THP-1 only, THP-1 cells alone; THP-1+1 μM, THP-1 cells treated with 1 μM RUX; T/BM+T−0 μM, MM BMMCs with THP-1 cells without RUX; T/BM+T−1 μM, BMMCs with THP-1 monocytes with RUX (1 μM).

The subject of a further test is MM cells. As to the kind of experiment: Dead MM cells by Trypan blue staining, BMMCs co-cultured with HS-5 stromal cells. Format: cell-based, human. Conditions: MM BMMCs co-cultured with HS-5.
The next test deals with MM cell. As to the kind of experiment: MM cell apoptosis in the presence of IL-2 stimulated T-cells (Example 11). Format: cell-based, human. Conditions: RUX 0-5 μM; antibodies 0-10 μg/ml; concentration dependent. The procedure: We further investigated the effects of RUX on PD-L1 and PD-L2 expression in primary and stromal cells from MM patients' BM samples in vitro. […] We then determined whether RUX can augment the anti-MM effects of T-cells in vitro. […] To evaluate the efficacy of drugs in vivo, severe combined immune deficient mice implanted with the human MM xenograft LAGκ-2 were treated with RUX (30 mg/kg). […] In contrast, RUX had no effect on PD-1 expression on T-cells.

Test [3] concerns PD-L1 gene expression. Conditions: MM patient; after 4 months of treatment vs before treatment; qPCR. The source says:
(§3) A second sample of BMMCs was collected after treatment with ruxolitinib, methylprednisolone, and lenalidomide.
On the technique in general: Quantitative PCR measures a nucleic acid by following its amplification.

For the next test, the system named is PD-L2 gene expression. Conditions: MM patient; after 4 months of treatment vs before treatment; qPCR.
Description: as §3

Another test has as its system CD8 gene expression. In words: CD8 gene expression in MMBM (Example 12). Format: cell-based, human. The procedure: as §1, §2

For `N#CC[C@H](C1CCCC1)n1cc(-c2ncnc3[nH]ccc23)cn1` [RUX, ruxolitinib], in the test with B7-H3 (after 48-72 hours, Rux 1 μM), the “B7-H3 expression in BM from patients in PD co-cultured with stromal cells (HS-5)” value was “significantly reduced”, the “B7-H3 expression in MM cells (U266)” value is reported as “significantly reduced” and the “B7-H3 expression in MMBMMCs in patients with PD” value is on record as “significantly reduced”. Further, the “B7H3 expression in human MM xenograft model LAGλ-1A” value in the test with B7-H3 (cultured ex vivo) is recorded as “decreased”. Further, the “B7-H3 at protein levels” value with B7-H3 (flow cytometric analysis and western blotting) is “suppressed”. The “PD-L2 gene and protein expression in MM tumor cells” value in test [1] is listed as “markedly reduced”. In addition, in the test with IL-2 gene expression (SUP-T1), the “IL-2 gene expression in BM cocultured with T cells” value is recorded as “elevated”. For the same compound, the “IL-2 gene expression in MMBM with lower plasma percentages” value in the test on IL-2 gene expression (plasma cell percentage <30%) is recorded as “increase”. Further, the “increase of IL-2 gene expression in MMBM with higher plasma cell percentages” value in the test on IL-2 gene expression (plasma cell percentage >70%) was “not”. In addition, in the test on PD-L1 protein expression, the “PD-L1-expressing MM tumor cells” value was “reduced in a concentration dependent manner”. Besides, the “PD-L1 gene expression in stromal cells co-cultured with BMMCs” value in the test with PD-L1 gene expression [2] (HS-5 with patient #2188 BMMCs) is listed as “reduced”. For the same compound, the “PD-L1 gene expression in monocytes (THP-1 cells) co-cultured with BMMCs” value in the test with PD-L1 gene expression [2] (THP-1 with patient #2188 BMMCs) is “reduced”. The “PD-L1 gene expression in BMMCs co-cultured with stromal cells” value in the test with PD-L1 gene expression [2] (patient #2188 BMMCs with HS-5) was “reduced”. Also, the “PD-L1 gene expression in BMMCs co-cultured with monocytes” value with PD-L1 gene expression [2] (patient #2188 BMMCs with THP-1) is given as “reduced”. The “percentage of dead MM cells” value in the test on MM cells is “increased in a concentration dependent fashion”. In addition, the “MM cell apoptosis in the presence of IL-2 stimulated T-cells” value in the test with MM cell is reported as “increased”. For the same compound, in the test on PD-L1 gene expression [3], the “PD-L1 gene expression in BMMCs” value is given as “down-regulates”. Further, in the test with PD-L2 gene expression, the “PD-L2 gene expression in BMMCs” value is listed as “down-regulates”. Moreover, the “CD8 gene expression in BM cocultured with T cells” value in the test on CD8 gene expression (SUP-T1) was “elevated”. Further, the “CD8 gene expression in MMBM with lower plasma percentages” value in the test on CD8 gene expression (plasma cell percentage <30%) was “increase”.

Values taken from US20220000872A1, “METHOD OF ENHANCING IMMUNE-BASED THERAPY” (OncoTracker, Inc., priority 2018, published 2022).
